# Like-named read-outs stand apart in the source and are kept apart here.
# Tests used:
# Ustilago maydis (USTIMA) = experiment: microbe, parasite or virus in culture; assay type: cell-based; conditions: Mycosarcoma maydis, read-out: USTIMA in vitro Growth Inhibition
# [1] = tested on: Puccinia recondita—PUCCRT; experiment: Brown Rust of Wheat, in vivo whole plant, 24 Hour Protectant; conditions: for pest or weed control at 100 ppm: Puccinia, read-out: PUCCRT in vivo 1 Day Protectant
# [2] = tested on: Mycosphaerella graminicola (Septoria tritici—SEPTTR); experiment: In vitro fungal growth inhibition, Mycosphaerella graminicola (SEPTTR); assay type: cell-based; conditions: Zymoseptoria tritici, read-out: SEPTTR in vitro Growth Inhibition
# [3] = tested on: Rhizoctonia solani (RHIZSO); experiment: microbe, parasite or virus in culture; assay type: cell-based; conditions: Rhizoctonia solani, read-out: RHIZSO in vitro Growth Inhibition
# [4] = tested on: Stagonospora nodorum (Leptosphaeria nodorum—LEPTNO); experiment: In vitro fungal growth inhibition, Stagonospora nodorum (LEPTNO); assay type: cell-based; conditions: Leptosphaeria, read-out: LEPTNO in vitro Growth Inhibition
# [5] = tested on: Magnaporthe grisea (Pyricularia oryzae—PYRIOR); experiment: microbe, parasite or virus in culture; assay type: cell-based; conditions: Pyricularia oryzae, read-out: PYRIOR in vitro Growth Inhibition
# [6] = tested on: Phytophthora infestans—PHYTIN; experiment: whole plant or invertebrate; assay type: in vivo; conditions: Phytophthora, in Solanum lycopersicum, 24 h, read-out: PHYTIN in vivo 1 Day Protectant
# Erysiphe graminis—ERYSGT = experiment: Powdery Mildew of Wheat, in vivo whole plant, 24 Hour Protectant; conditions: Erysiphe, read-out: ERYSGT in vivo 1 Day Protectant
# Septoria tritici—SEPTTR = experiment: Leaf Blotch of Wheat, in vivo whole plant, 24 Hour Protectant; conditions: for pest or weed control at 100 ppm: Zymoseptoria tritici, 24 h, read-out: SEPTTR in vivo 1 Day Protectant
# [7] = tested on: Phytophthora infestans (PHYTIN); experiment: microbe, parasite or virus in culture; assay type: cell-based; conditions: Phytophthora infestans, read-out: PHYTIN in vitro Growth Inhibition
# [8] = tested on: Leptosphaeria nodorum—LEPTNO; experiment: Glume Blotch of Wheat, in vivo whole plant, 24 Hour Protectant; conditions: for pest or weed control at 100 ppm: Leptosphaeria, read-out: LEPTNO in vivo 1 Day Protectant
# [9] = wheat plants sprayed at 100 ppm, inoculated after 24 hours, control of fungal infection vs untreated plants
# [10] = 100 ppm spray, 24 hour protectant, wheat, control of fungal infection vs untreated plants
# [11] = 100 ppm spray, wheat, 24 hour protectant, % control of fungal infection vs untreated plants
# [12] = 100 ppm spray, wheat, 24 hour protectant, control of fungal infection vs untreated plants
structure (smiles),measurement,setting,value
COc1ccnc(C(=O)N[C@H]2CO[C@@H](C(C)Cc3ccc(C(C)(C)C)cc3)OC2)c1OC(C)=O (stereo partly drawn) [Compound 593],inhibition at 25 ppm,Ustilago maydis (USTIMA),< 80%
same,PUCCRT in vivo 1 Day Protectant,[1]; [9],+ +
same,inhibition at 25 ppm,[2]; 25 ppm in the growth medium,< 80%
same,inhibition at 25 ppm,[3],< 80%
same,inhibition at 25 ppm,[4]; 25 ppm in the growth medium,< 80%
same,inhibition at 25 ppm,[5],< 80%
same,pest or weed control at 100 ppm,[6],< 25%
same,pest or weed control at 100 ppm,Erysiphe graminis—ERYSGT; [9],< 25%
same,pest or weed control at 100 ppm,Septoria tritici—SEPTTR; [9],25 to 74%
same,inhibition at 25 ppm,[7],< 80%
COc1ccnc(C(=O)N[C@H]2CC[C@H]3C4CCC(CC4)[C@H]3C2=O)c1O [Compound 292],inhibition at 25 ppm,Ustilago maydis (USTIMA),< 80%
same,pest or weed control at 100 ppm,[1]; [10],25 to 74%
same,inhibition at 25 ppm,[2]; 25 ppm in growth medium,< 80%
same,LEPTNO in vivo 1 Day Protectant,[8]; [10],+ +
same,inhibition at 25 ppm,[3],< 80%
same,inhibition at 25 ppm,[4]; 25 ppm in growth medium,> 80%
same,inhibition at 25 ppm,[5],< 80%
same,pest or weed control at 100 ppm,[6],< 25%
same,pest or weed control at 100 ppm,Erysiphe graminis—ERYSGT; [10],< 25%
same,inhibition at 25 ppm,[7],< 80%
CC(C)C(=O)O[C@H]1[C@H](C)OC(=O)[C@@H](NC(=O)c2ccncc2O)COC(=O)[C@@H]1Cc1ccccc1 [Compound 513],pest or weed control at 100 ppm,[1]; [9],25 to 74%
same,LEPTNO in vivo 1 Day Protectant,[8]; [9],+ +
same,pest or weed control at 100 ppm,[6],< 25%
same,pest or weed control at 100 ppm,Erysiphe graminis—ERYSGT; [9],< 25%
same,pest or weed control at 100 ppm,Septoria tritici—SEPTTR; [9],< 25%
COc1ccnc(C(=O)NCC(C)(C)Sc2ncc(C(F)(F)F)cc2Cl)c1O [Compound 244],inhibition at 25 ppm,Ustilago maydis (USTIMA),< 80%
same,pest or weed control at 100 ppm,[1]; [10],< 25%
same,inhibition at 25 ppm,[2]; 25 ppm in growth medium,> 80%
same,pest or weed control at 100 ppm,[8]; [10],25 to 74%
same,inhibition at 25 ppm,[3],< 80%
same,inhibition at 25 ppm,[4]; 25 ppm in growth medium,> 80%
same,inhibition at 25 ppm,[5],> 80%
same,pest or weed control at 100 ppm,[6],< 25%
same,pest or weed control at 100 ppm,Erysiphe graminis—ERYSGT; [10],< 25%
same,inhibition at 25 ppm,[7],< 80%
COCCC(=O)Oc1c(OC)ccnc1C(=O)N[C@H]1COC(=O)[C@H](Cc2ccccc2)[C@@H](OC(=O)CCOC)[C@H](C)OC1=O [Compound 705],PUCCRT in vivo 1 Day Protectant,[1]; [11],+ +
same,LEPTNO in vivo 1 Day Protectant,[8]; [11],+ +
same,pest or weed control at 100 ppm,[6],< 25%
same,pest or weed control at 100 ppm,Erysiphe graminis—ERYSGT; [11],< 25%
same,pest or weed control at 100 ppm,Septoria tritici—SEPTTR; [11],25 to 74%
COc1ccnc(C(=O)N[C@H]2CC3CC2[C@H](COCc2cccc(C(F)(F)F)c2)C3)c1O (stereo partly drawn) [Compound 294],inhibition at 25 ppm,Ustilago maydis (USTIMA),< 80%
same,pest or weed control at 100 ppm,[1]; [10],< 25%
same,inhibition at 25 ppm,[2]; 25 ppm in growth medium,> 80%
same,LEPTNO in vivo 1 Day Protectant,[8]; [10],+ +
same,inhibition at 25 ppm,[3],> 80%
same,inhibition at 25 ppm,[4]; 25 ppm in growth medium,> 80%
same,inhibition at 25 ppm,[5],> 80%
same,pest or weed control at 100 ppm,[6],< 25%
same,pest or weed control at 100 ppm,Erysiphe graminis—ERYSGT; [10],< 25%
same,inhibition at 25 ppm,[7],< 80%
Cc1ccnc(C(=O)NC2CC(C)(C)CC(C)(C)C2)c1OC(=O)C(C)C [Compound 571],pest or weed control at 100 ppm,[1]; [9],< 25%
same,pest or weed control at 100 ppm,[8]; [9],25 to 74%
same,pest or weed control at 100 ppm,[6],25 to 74%
same,pest or weed control at 100 ppm,Erysiphe graminis—ERYSGT; [9],< 25%
same,pest or weed control at 100 ppm,Septoria tritici—SEPTTR; [9],< 25%
COc1ccnc(C(=O)N[C@@H]2CC3CC2[C@@H](C(=O)OCCc2ccccc2)[C@H]3C(=O)OCC(C)C)c1O (stereo partly drawn) [Compound 301],inhibition at 25 ppm,Ustilago maydis (USTIMA),< 80%
same,pest or weed control at 100 ppm,[1]; [10],25 to 74%
same,inhibition at 25 ppm,[2]; 25 ppm in growth medium,< 80%
same,pest or weed control at 100 ppm,[8]; [10],25 to 74%
same,inhibition at 25 ppm,[3],> 80%
same,inhibition at 25 ppm,[4]; 25 ppm in growth medium,> 80%
same,inhibition at 25 ppm,[5],> 80%
same,pest or weed control at 100 ppm,[6],< 25%
same,pest or weed control at 100 ppm,Erysiphe graminis—ERYSGT; [10],< 25%
same,inhibition at 25 ppm,[7],< 80%
COc1ccnc(C(=O)N[C@@H]2CC3CC2[C@@H](c2ccccc2)[C@@H]3C(=O)OC(C)C)c1O (stereo partly drawn) [Compound 300],inhibition at 25 ppm,Ustilago maydis (USTIMA),< 80%
same,pest or weed control at 100 ppm,[1]; [10],< 25%
same,inhibition at 25 ppm,[2]; 25 ppm in growth medium,< 80%
same,pest or weed control at 100 ppm,[8]; [10],25 to 74%
same,inhibition at 25 ppm,[3],> 80%
same,inhibition at 25 ppm,[4]; 25 ppm in growth medium,> 80%
same,inhibition at 25 ppm,[5],< 80%
same,pest or weed control at 100 ppm,[6],< 25%
same,pest or weed control at 100 ppm,Erysiphe graminis—ERYSGT; [10],< 25%
same,inhibition at 25 ppm,[7],< 80%
COc1ccnc(C(=O)NC2CCN(C(=O)c3ccccc3)CC2)c1O [Compound 308],inhibition at 25 ppm,Ustilago maydis (USTIMA),< 80%
same,pest or weed control at 100 ppm,[1]; [10],< 25%
same,pest or weed control at 100 ppm,[8]; [10],< 25%
same,pest or weed control at 100 ppm,[6],< 25%
same,pest or weed control at 100 ppm,Erysiphe graminis—ERYSGT; [10],25 to 74%
same,pest or weed control at 100 ppm,Septoria tritici—SEPTTR; [10],25 to 74%
COc1ccnc(C(=O)NC2CCC[C@H]3[C@H]4CC[C@H](C4)[C@@H]23)c1O (stereo partly drawn) [Compound 291],inhibition at 25 ppm,Ustilago maydis (USTIMA),< 80%
same,pest or weed control at 100 ppm,[1]; [10],< 25%
same,inhibition at 25 ppm,[2]; 25 ppm in growth medium,< 80%
same,pest or weed control at 100 ppm,[8]; [10],25 to 74%
same,inhibition at 25 ppm,[3],> 80%
same,inhibition at 25 ppm,[4]; 25 ppm in growth medium,> 80%
same,inhibition at 25 ppm,[5],< 80%
same,pest or weed control at 100 ppm,[6],< 25%
same,pest or weed control at 100 ppm,Erysiphe graminis—ERYSGT; [10],< 25%
same,inhibition at 25 ppm,[7],< 80%
COc1ccnc(C(=O)N[C@H]2COC(=O)[C@H](Cc3ccccc3)[C@@H](OC(=O)C(C)C)[C@H](C)OC2=O)c1OC(=O)OCc1ccccc1 [Compound 695],inhibition at 25 ppm,Ustilago maydis (USTIMA),< 80%
same,PUCCRT in vivo 1 Day Protectant,[1]; [11],+ +
same,inhibition at 25 ppm,[2]; 25 ppm in growth medium,< 80%
same,LEPTNO in vivo 1 Day Protectant,[8]; [11],+ +
same,inhibition at 25 ppm,[3],< 80%
same,inhibition at 25 ppm,[4]; 25 ppm in growth medium,< 80%
same,inhibition at 25 ppm,[5],> 80%
same,pest or weed control at 100 ppm,[6],< 25%
same,pest or weed control at 100 ppm,Erysiphe graminis—ERYSGT; [11],< 25%
same,inhibition at 25 ppm,[7],< 80%
CCCC[C@H]1C(=O)O[C@H](C)C(NC(=O)c2cccc(NC(=O)c3nccc(OC)c3O)c2O)C(=O)O[C@@H](C)[C@@H]1OC(=O)CC(C)C (stereo partly drawn) [Compound 473],pest or weed control at 100 ppm,[1]; 24 h,25 to 74%
same,LEPTNO in vivo 1 Day Protectant,[8]; in vivo,+ +
same,pest or weed control at 100 ppm,[6],< 25%
same,pest or weed control at 100 ppm,Erysiphe graminis—ERYSGT; 24 h,< 25%
same,pest or weed control at 100 ppm,Septoria tritici—SEPTTR,25 to 74%
COc1ccnc(C(=O)NC2CCC[C@H]3CC(CCC=C(C)C)=CC[C@@H]23)c1O (stereo partly drawn) [Compound 286],inhibition at 25 ppm,Ustilago maydis (USTIMA),< 80%
same,pest or weed control at 100 ppm,[1]; [10],< 25%
same,inhibition at 25 ppm,[2]; 25 ppm in growth medium,< 80%
same,pest or weed control at 100 ppm,[8]; [10],25 to 74%
same,inhibition at 25 ppm,[3],> 80%
same,inhibition at 25 ppm,[4]; 25 ppm in growth medium,> 80%
same,inhibition at 25 ppm,[5],< 80%
same,pest or weed control at 100 ppm,[6],< 25%
same,pest or weed control at 100 ppm,Erysiphe graminis—ERYSGT; [10],< 25%
same,inhibition at 25 ppm,[7],< 80%
COc1ccnc(C(=O)N[C@H]2COC(=O)[C@H](Cc3ccccc3)C[C@H](C)OC2=O)c1O [Compound 382],inhibition at 25 ppm,Ustilago maydis (USTIMA),< 80%
same,pest or weed control at 100 ppm,[1]; [12],25 to 74%
same,inhibition at 25 ppm,[2]; 25 ppm in growth medium,> 80%
same,LEPTNO in vivo 1 Day Protectant,[8]; [12],+ +
same,inhibition at 25 ppm,[3],< 80%
same,inhibition at 25 ppm,[4]; 25 ppm in growth medium,< 80%
same,inhibition at 25 ppm,[5],< 80%
same,pest or weed control at 100 ppm,Erysiphe graminis—ERYSGT; [12],< 25%
same,pest or weed control at 100 ppm,Septoria tritici—SEPTTR; [12],25 to 74%
same,inhibition at 25 ppm,[7],< 80%
COc1ccnc(C(=O)N[C@H]2CC3CC2C[C@@H]3COCc2cccc(C(F)(F)F)c2)c1O (stereo partly drawn) [Compound 296],inhibition at 25 ppm,Ustilago maydis (USTIMA),< 80%
same,pest or weed control at 100 ppm,[1]; [10],< 25%
same,inhibition at 25 ppm,[2]; 25 ppm in growth medium,< 80%
same,pest or weed control at 100 ppm,[8]; [10],25 to 74%
same,inhibition at 25 ppm,[3],> 80%
same,inhibition at 25 ppm,[4]; 25 ppm in growth medium,> 80%
same,inhibition at 25 ppm,[5],> 80%
same,pest or weed control at 100 ppm,[6],< 25%
same,pest or weed control at 100 ppm,Erysiphe graminis—ERYSGT; [10],< 25%
same,inhibition at 25 ppm,[7],< 80%
COc1ccnc(C(=O)N[C@H]2COC(=O)[C@H](Cc3ccccc3)[C@@H](OC(=O)C(C)C)[C@H](C)OC2=O)c1O[Si](C)(C)C(C)(C)C [Compound 720],PUCCRT in vivo 1 Day Protectant,[1]; [11],+ +
same,LEPTNO in vivo 1 Day Protectant,[8]; [11],+ +
same,pest or weed control at 100 ppm,[6],< 25%
same,pest or weed control at 100 ppm,Erysiphe graminis—ERYSGT; [11],< 25%
same,SEPTTR in vivo 1 Day Protectant,Septoria tritici—SEPTTR; [11],+ +

# From US6706740B2, “Fungicidal heterocyclic aromatic amides and their compositions, methods of use and preparation” (Dow AgroSciences LLC, priority 1999, dated 2004)
